Measured values taken from patent publication US20240189244A1 (priority 2021, published 2024).
Counter-ions that a name gives are not always drawn.

Assays:
[1] = tested on: renal proximal tubule cells (RPTCs); type: cell-based, New Zealand white rabbits; conditions: for effect of inhibitor pretreatment on DEDC(NP) uptake by RPTCs: then 0.1 mg/mL DEDC(NP)s 2 h
Description: To assess uptake of DEDC(NP)s, RPTCs were grown in 35-mm tissue culture dishes as described above. DEDC(NP) dispersions were prepared by diluting nanoparticles into media and vortexed immediately prior to experiments. Cells were preincubated for 30 min with varying concentrations of either media or the drugs chlorpromazine hydrochloride (Sigma-Aldrich), nocodazole (Sigma-Aldrich), or simvastatin (Sigma-Aldrich). After pre-incubation, DEDC(NP)s were added at a final concentration of 0.1 mg/mL and incubated for 2 h at 37° C. Cells were washed in triplicate with media to ensure removal of nanoparticles adhered to the outer cell membrane. Cells were then fixed in 10% neutral buffered formalin and nuclei stained with 4′,6-diamidino-2-phenylindole (DAPI). Cells were imaged using the EVOS M5000 Imaging System (ThermoFisher, Waltham, MA) and fluorescence intensity was analyzed by ImageJ (NIH) (n=5 biological replicates).

[2] = tested on: KIM-1, PGC-1α, ETC proteins, tight junction proteins in renal cortex; assay: I/R AKI: renal cortex proteins by immunoblot and KIM-1 immunohistochemistry; type: in vivo, C57Bl/6 mice; conditions: 144 hours, daily treatment
Description: (§1) Mice were subjected to bilateral renal ischemia for 18-20 minutes or sham surgery as previously described (Funk J A, Schnellmann R G. Persistent disruption of mitochondrial homeostasis after acute kidney injury. Am J Physiol Renal Physiol 2012; 302: F853-864). Mice were allowed to recover without intervention for 24 hours and sorted into groups based on 24-hour serum creatinine levels prior to initiation of dosing. Mice were dosed either daily or at a reduced frequency at 24 hours and 96 hours post-injury (2-day dosing). […] Mice were given VS and FFD via intraperitoneal injection.

[3] = tested on: PGC-1α, ND1, NDUFS1 in left ventricle; assay: Immunoblot of mitochondrial biogenesis markers in left ventricle of naive mice; conditions: 24 hours; formoterol 0.3 mg/kg or nanoparticles 0.04 mg/kg formoterol i.v.; vs control
Description: (§2) Male C57BL/6 mice were obtained from Charles River (Oakwood, MI) and housed in a room at a constant temperature of 22+2° C. with 12:12 hour light-dark cycles. […] At 24 hours post exposure, mice were euthanized and kidney and heart were harvested. All experiments were approved by The University of Arizona in accordance with the guidelines set forth by the National Institutes of Health Guide for the Care and Use of Laboratory Animals.

[4] = tested on: renal proximal tubule cells (RPTCs); assay: Cell viability by resazurin reduction assay; conditions: formoterol 1-1000 nM, 24 hours
Description: The RPTCs were cultured on 35-mm tissue culture dishes with 1:1 DMEM:F-12 (without glucose, phenol red, or sodium pyruvate) as media supplemented with 15 mM HEPES buffer, 2.5 mM L-glutamine, 1 μM pyridoxine HCL, 15 mM sodium bicarbonate, and 6 mM lactate. Daily, hydrocortisone (50 nM), selenium (5 ng/mL), human transferrin (5 μg/mL), bovine insulin (10 nM), and L-ascorbic acid-2-phosphate (50 μM) were added to fresh culture medium. Confluent cells were used for all experiments.
Cultured RPTCs were grown on 96-well plates at a cell density of 5×10^3 cells/well for 96 h. […] The treatments were each prepared by dissolving or suspending the powders in culture media. […] Viability was assessed (n=6 technical replicates per biological replicate) by resazurin reduction assay as described previously (41). Detection was assessed using Synergy H1 Multi-Mode Reader (BioTek Instruments, Inc., Winooski, VT) with 544 nm excitation and 590 nm emission wavelengths. The relative viability of the cells was calculated as follows: […]
Detection was measured using Synergy H1 Multi-Mode Reader (BioTek Instruments, Inc., Winooski, VT) with 544 nm excitation and 590 nm emission wavelengths. Five biological replicates were used and viability of the cells was calculated as follows:

physchem = conditions: for solubility at 24 h: 25 °C, thermodynamic from solid
Description: For variable pH samples, solution pH was adjusted with either hydrochloric acid or sodium hydroxide solutions (1 M Sigma-Aldrich, St. Louis, MO). Vials were rotated gently for 24 hours at 25° C. as previously described (Aodah A, Pavlik A, Karlage K, Myrdal P B. Preformulation Studies on Piperlongumine. PLOS One. 2016; 11(3):e0151707). Test solutions were filtered using 0.45 μm PVDF or PTFE membrane filters (MilliporeSigma, Burlington, MA) for aqueous and organic solvents respectively.

I/R injured mice = assay: I/R AKI: cardiovascular function by tail cuff; conditions: 1-2 hours following administration
Description: as §1
(§3) Mouse blood pressure and heart rates were measured with a non-invasive tail cuff device (CODA8, Kent Scientific, CT) as previously described (Wang Y, Thatcher S E, Cassis L A. Measuring Blood Pressure Using a Noninvasive Tail Cuff Method in Mice. Methods Mol Biol 2017; 1614: 69-73). All measurements were performed on restrained, conscious animals located on a heating pad following the manufacturer's protocol. […] At least 10 valid measurements were taken per animal.

Wistar rats = conditions: cited from earlier work
C57BL/6 mice = assay: Tail cuff heart rate and blood pressure, naive mice; conditions: 1-2 hours after 0.3 mg/kg formoterol
Description: as §2
as §3, with “The” for “Mouse”, “CT) which uses a volume-pressure method” for “CT)”, “Biol.” for “Biol”, “1614:69-73).” for “1614: 69-73).”, “manufacturers” for “manufacturer's”

[5] = tested on: NDUFB8, SDHB, UQCRC2, ATP5A in renal cortex; assay: Nanoparticle dose selection: renal cortical ETC proteins after 1 week of dosing; conditions: BTBR WT mice
Description: The FFD(NP) dosage and frequency was determined using BTBR wild type mice (BTBR T^+ Itpr3^tf/J) (The Jackson Laboratory, Bar Harbor, ME). […] The Veh(Sal) group was given intraperitoneal injections of normal saline daily. The Veh(NP) group was given 60 mg/kg nanoparticles injected via lateral tail vein 2× per week. […] After eight days, mice were weighed, euthanized and kidneys were extracted and snap-frozen in liquid nitrogen.
Protein was extracted from renal cortical tissue using radioimmunoprecipitation assay (RIPA) buffer (50 mM Tris-HCl, 150 mM NaCl, 0.1% SDS, 0.5% sodium deoxycholate and 1% Triton X-100, pH 7.4) with protease inhibitor cocktail (1:100), 1 mM sodium fluoride, and 1 mM sodium orthovanadate (Sigma Aldrich). Equal protein quantities (10 μg) were loaded onto 4-15% SDS-PAGE gels, resolved by gel electrophoresis, and then transferred onto nitrocellulose membranes. Membranes were blocked in 5% milk in tris-buffered saline/tween 20, incubated at a temperature of 4° C. for 18-24 h with primary and secondary antibodies (Abcam). Bound antibodies were visualized using enhanced chemiluminescence (Thermo Scientific, Waltham, MA) and the GE ImageQuant LAS400 Biomolecular Imaging System (GE Healthcare, Marlborough, MA).

[6] = tested on: renal proximal tubule cells (RPTCs); conditions: up to a concentration of 1000 nM, previous studies; cited from earlier work
BTBR WT and ob/ob mice = assay: Diabetic mice: cardiovascular fibrosis, heart weight and survival
Description: The efficacy of nanoparticle therapy was determined using BTBR wild type and obese diabetic mice (BTBR T^+ Itpr3^tf/J (WT) and BTBR.Cg-Lep^ob/WiscJ (ob/ob)) (The Jackson Laboratory, Bar Harbor, ME). […] Mice in the vehicle saline groups, Veh(Sal), received daily intraperitoneal injections of normal saline. Immediately following study initiation, 8 mice from both WT and ob/ob Veh(Sal) were euthanized and kidneys extracted for histological analysis. Remaining mice (n=8 per group) were treated for 8 weeks. Following the final week of treatment, mice were sacrificed and kidneys were perfused with normal saline with heparin (10 U/mL). Serum, kidneys and heart were collected for protein and histological analysis.
Cardiovascular fibrosis was measured by quantification of the fraction of trichrome-positive area in both interstitial and perivascular sections of the right ventricular wall. At least 15 sections were quantified per animal. All quantification was completed by an analyst blinded to treatment group.

[7] = ventricular wall, 8 weeks of treatment

## CCN1C(=CC=CC=Cc2sc3ccccc3[n+]2CC)Sc2ccccc21.[I-] [DEDC, 3,3′-diethylthiadicarbocyanine iodide]
[1]; 0.1 mg/mL DEDC(NP)s or equivalent free dye, 2 h
  intracellular fluorescence in RPTCs (uptake): minimal

## CN(C)CCCN1c2ccccc2Sc2ccc(Cl)cc21 [chlorpromazine, chlorpromazine hydrochloride]
[1]; 30 min preincubation
  effect of inhibitor pretreatment on DEDC(NP) uptake by RPTCs: no observable decline in uptake

## COc1ccc(CC(C)NCC(O)c2ccc(O)c(NC=O)c2)cc1 (centres unmarked) [formoterol, Formoterol fumarate dihydrate]
[2]
  claudin-5 expression: 50 % of sham
[3]
  protein expression of mitochondrial biogenesis markers in left ventricle: Elevated protein expression was significant
[4]
  viability of proximal tubule cells: not significantly decreased
physchem; organic solvent or mixture, Formoterol Solubility, ACN
  solubility at 24 h: 5 ± 1 µg/mL
physchem; organic solvent or mixture, Formoterol Solubility, Acetone
  solubility at 24 h: 63 ± 4 µg/mL
physchem; organic solvent or mixture, Formoterol Solubility, Chloroform
  solubility at 24 h: 2 ± 1 µg/mL
physchem; organic solvent or mixture, Formoterol Solubility, DCM
  solubility at 24 h: 1 ± 0.4 µg/mL
physchem; water, water solubility
  solubility at 24 h: 1160 ± 20 µg/mL
physchem; Acetone, fumarate dihydrate
  Formoterol Solubility: 51 ± 4 µg/mL
physchem; PVA and Pluronic F127, 0.1% to 5% in aqueous solution
  solubility in non-ionic surfactant solutions: remains unchanged
physchem; ethanol and methanol volume fraction
  solubility in water:alcohol mixtures: increased with increasing volume fraction
physchem; pH adjusted with HCl or NaOH
  solubility in water at various pH: increasing solubility in highly basic or acidic conditions
I/R injured mice
  decrease in mean arterial pressure (MAP): 18%
  heart rate increase from VS: 1.5 fold
Wistar rats; immediately following systemic dosing
  increase in heart rate from baseline: 100-150 bpm
Wistar rats; intravenous administration, similar doses
  mean arterial pressure (MAP): significant decrease in mean arterial pressure
Wistar rats; rat, in vivo
  lowest dose at which heart rate effect was seen: 3 µg/kg
  persistence of heart rate increase: up to 4 hours
C57BL/6 mice
  decrease in diastolic blood pressure: 19 mmHg
  decrease in mean arterial pressure (MAP): 16 mmHg
  heart rate elevation above the vehicle group: 198 bpm
  heart rate increase vs vehicle: 65%
[5]
  weight gain: no differences in weight gain amongst groups
[6]
  toxicity to RPTCs: non-toxic
BTBR WT and ob/ob mice; 8 weeks of treatment
  focal myocardial fibrosis / collagen accumulation: significant focal
BTBR WT and ob/ob mice; BTBR WT mice
  probability of survival to 12 weeks of age: 38%
BTBR WT and ob/ob mice; BTBR WT or BTBR ob/ob
  heart weight normalized to respective Veh(Sal) controls: 1.3 fold
BTBR WT and ob/ob mice; BTBR ob/ob mice
  probability of surviving to 12 weeks of age: 13%
BTBR WT and ob/ob mice; [7]
  diffuse interstitial trichrome positive area elevation: 1.6 fold
  perivascular trichrome positive area elevation: 3.7 fold

## COC(=O)Nc1nc2ccc(C(=O)c3cccs3)cc2[nH]1 [nocodazole]
[1]; 30 min preincubation
  effect of inhibitor pretreatment on DEDC(NP) uptake by RPTCs: no observable decline in uptake

## CCC(C)(C)C(=O)O[C@H]1C[C@@H](C)C=C2C=C[C@H](C)[C@H](CC[C@@H]3C[C@@H](O)CC(=O)O3)[C@H]21 [simvastatin]
[1]; 30 min preincubation
  inhibitor concentration at which decrease in nanoparticle uptake starts: 1 µM
  inhibitor concentration giving complete reduction in intracellular fluorescence intensity: 100 µM
